Converted amounts (≈) assume the structure as drawn.
Experiments:
Jurkat = assay: Cytotoxicity against human Jurkat cells after 72 hrs by MTS method; format: functional
PC-3 = assay: Cytotoxicity against human PC-3 cells after 72 hrs by MTS method; format: functional; details: PC-3, 72 h

Compound: CCCCCCCCCCCC[C@@H](O)[C@H]1CC[C@H]([C@H](O)CCCCC[C@@H](O)CCCCCCC2=C[C@H](C)OC2=O)O1
- GI50 (Jurkat): 5 µg/mL (≈ 8.61 µM)
- GI50 (PC-3): 10 µg/mL (≈ 17.2 µM)

Compound: CCCCCCCCCCCC[C@@H](O)[C@H]1CC[C@H]([C@H](O)CCCCC[C@H](O)CCCCCCC2=C[C@H](C)OC2=O)O1
- GI50 (Jurkat): 5 µg/mL (≈ 8.61 µM)
- GI50 (PC-3): 15 µg/mL (≈ 25.8 µM)

Source: ChEMBL document CHEMBL1144195, “Synthesis and antitumor activity of C-9 epimers of the tetrahydrofuran containing acetogenin 4-deoxyannoreticuin” (2008)
